Results from ChEMBL document CHEMBL1201862, “PubChem BioAssay data set” (2004).
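Dose response: 5 concentrations. Exposure: 48 h. Format: 96-well plates. Endpoint: linear interpolation; highest concentration if not reached. GI50 is the concentration that inhibits growth by half.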 The source made the active and inactive calls. No stated cut-off is given here; in the data, active = GI50 up to about 1.1 µM and inactive = higher.

Assays:
Test in all cases: DTP human tumour cell line panel, 48 h
A498 = test system: A498
IGROV-1 = test system: IGROV-1
U-251 = test system: U-251
UO-31 = test system: UO-31
SF-539 = test system: SF-539
SK-MEL-28 = test system: SK-MEL-28
SN12C = test system: SN12C
M14 = test system: M14
TK-10 = test system: TK-10
NCI-H226 = test system: NCI-H226
SR = test system: SR
KM12 = test system: KM12
SW-620 = test system: SW-620
HCC 2998 = test system: HCC 2998
EKVX = test system: EKVX

Measured: GI50

COc1ccccc1NC(=O)C(=O)C(c1cnc2ccc([N+](=O)[O-])cc2n1)[N+](=O)[O-] (stereo not given)
inactive: A498 > 100 µM | IGROV-1 > 100 µM | U-251 > 100 µM | UO-31 78 µM | SF-539 > 100 µM | SK-MEL-28 > 100 µM | SN12C > 100 µM | M14 78.7 µM | TK-10 > 100 µM | NCI-H226 > 100 µM | SR 45.6 µM | KM12 > 100 µM | SW-620 > 100 µM | HCC 2998 92 µM | EKVX > 100 µM

Cc1cccc2c(=O)c([Se]c3coc4c(C)cccc4c3=O)coc12
inactive: A498 24.6 µM | IGROV-1 13.6 µM | U-251 11.2 µM | UO-31 14.9 µM | SF-539 16.3 µM | SK-MEL-28 16.7 µM | SN12C 18.5 µM | M14 16.4 µM | TK-10 29.9 µM | NCI-H226 16.9 µM | SR 14.8 µM | KM12 13.7 µM | SW-620 20.4 µM | HCC 2998 21.2 µM | EKVX 17.3 µM

O=C1c2ccccc2C2(O)Oc3cccc(O)c3C12O (stereo not given)
inactive: A498 > 100 µM | IGROV-1 > 100 µM | U-251 > 100 µM | UO-31 > 100 µM | SF-539 > 100 µM | SK-MEL-28 > 100 µM | SN12C > 100 µM | M14 > 100 µM | TK-10 > 100 µM | NCI-H226 > 100 µM | SR > 100 µM | KM12 > 100 µM | SW-620 > 100 µM | HCC 2998 > 100 µM | EKVX > 100 µM

COc1ccc2nc3cc(Cl)ccc3c(NCCC(=O)OCC(O)C(O)C(O[C@H](C)C(=O)NC(C)C(=O)NC(CCC(N)=O)C(=O)OCc3ccccc3)C(C=O)NC(C)=O)c2c1 (stereo not given in full)
inactive: A498 21 µM | IGROV-1 16 µM | U-251 18.2 µM | UO-31 20.5 µM | SF-539 16.8 µM | SK-MEL-28 17.7 µM | SN12C 16.1 µM | M14 19.5 µM | TK-10 22.8 µM | NCI-H226 22.5 µM | SR 4.03 µM | KM12 19.1 µM | SW-620 15 µM | HCC 2998 17.7 µM | EKVX 18.4 µM

O=C(CSc1c2ccccc2nc2ccccc12)Nc1ccccc1-c1ccccc1NC(=O)CSc1c2ccccc2nc2ccccc12
inactive: A498 23 µM | IGROV-1 18.4 µM | U-251 26.7 µM | UO-31 34.2 µM | SF-539 14.4 µM | SK-MEL-28 20.8 µM | SN12C 28 µM | M14 24.4 µM | TK-10 60.4 µM | NCI-H226 29.2 µM | SR 11.1 µM | KM12 21.5 µM | SW-620 28.6 µM | HCC 2998 17.4 µM | EKVX 21.4 µM
